Source: ChEMBL document CHEMBL1201862, “PubChem BioAssay data set” (2004)
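Assay format: 96-well plates, 48-hour exposure. GI50 marks 50% less growth.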 Active and inactive are the calls of the source. No stated cut-off is given here; in the data, active = GI50 up to about 1.1 µM and inactive = higher. Square brackets hold non-standard residues; d marks the D form. Peptide text beside a SMILES is read from it. * marks the point of attachment. X26 = COC1=CC(=O)N(C(=O)[C@@H](O*)C(C)C)[C@H]1Cc1ccccc1; Bn2Val = CC(C)[C@@H](C(=O)*)N(Cc1ccccc1)Cc1ccccc1; NMeV = CN[C@H](C(=O)O)C(C)C; dNMeA = CN[C@H](C)C(=O)O

Experiments:
Experiment in all cases: NCI anticancer screen, dose series, 48 h
[1] = system: K562
[2] = system: M14
[3] = system: CCRF-CEM
[4] = system: NCI-H23
[5] = system: SNB-19
[6] = system: SR
[7] = system: T47D
[8] = system: NCI-H226
[9] = system: HL-60
[10] = system: MCF7
[11] = system: OVCAR-8
[12] = system: NCI/ADR-RES
[13] = system: DU-145
[14] = system: TK-10
[15] = system: UACC-257
[16] = system: 786-0
[17] = system: SW-620
[18] = system: MDA-MB-231
[19] = system: SK-OV-3
[20] = system: HCC 2998

Measured: GI50

CC(NC(=O)CNP(=O)(c1ccccc1)c1ccccc1)C(=O)NC(Cc1ccccc1)C(=O)OCc1ccccc1 (centres undefined)
inactive: [1] > 10 µM | [2] 49.7 µM | [3] > 10 µM | [4] 37.8 µM | [5] 51.2 µM | [6] 24.9 µM | [7] > 100 µM | [8] > 100 µM | [9] 28.6 µM | [10] 24.6 µM | [11] > 100 µM | [12] > 100 µM | [13] > 100 µM | [14] > 100 µM | [15] > 100 µM | [16] 22.2 µM | [17] 45.7 µM | [18] 35.6 µM | [19] 21 µM

CC(C)N(c1cc2c(cc1F)c(=O)c(C(=O)O)cn2-c1ccc(N2CCN(C)CC2)cn1)C(C)C
inactive: [1] > 100 µM | [2] > 100 µM | [3] > 100 µM | [4] > 100 µM | [5] > 100 µM | [6] > 100 µM | [7] > 100 µM | [8] > 100 µM | [9] > 100 µM | [10] > 100 µM | [11] > 100 µM | [12] > 100 µM | [13] > 100 µM | [14] > 100 µM | [15] > 100 µM | [16] > 100 µM | [17] > 100 µM | [18] > 100 µM | [19] > 100 µM

Cc1cc(C)cc(C(=N)c2ccccc2Cc2cccc3ccccc23)c1
inactive: [1] 16.3 µM | [2] 16.5 µM | [3] 9.73 µM | [4] 15.7 µM | [5] 19.5 µM | [6] 14.2 µM | [7] 16.3 µM | [8] 14.6 µM | [9] 13.3 µM | [10] 16.2 µM | [11] 18 µM | [12] 20.2 µM | [13] 16.2 µM | [14] 25.6 µM | [15] 22.2 µM | [16] 15.2 µM | [17] 15.2 µM | [18] > 100 µM | [19] 17.5 µM

Cc1cc(/N=C/c2ccc(F)cc2)n(-c2ccccc2)n1
inactive: [1] 59.3 µM | [2] > 100 µM | [3] 34.6 µM | [4] 82.2 µM | [5] > 100 µM | [6] 35.4 µM | [7] 27.2 µM | [8] > 100 µM | [9] 30.3 µM | [10] 46.7 µM | [11] > 100 µM | [12] > 100 µM | [13] > 100 µM | [14] 57 µM | [15] 50.1 µM | [16] > 100 µM | [17] > 100 µM | [18] > 100 µM | [19] > 100 µM

COC1=CC(=O)N(C(=O)[C@@H](OC(=O)[C@@H](C)N(C)C(=O)[C@@H]2CCCN2C(=O)[C@H](C(C)C)N(C)C(=O)[C@@H](NC(=O)[C@H](C(C)C)N(Cc2ccccc2)Cc2ccccc2)C(C)C)C(C)C)[C@H]1Cc1ccccc1 (Bn2Val-V[NMeV]P[dNMeA]-X26)
inactive: [1] 6.78 µM | [2] 68.1 µM | [3] > 100 µM | [5] > 90.2 µM | [6] > 100 µM | [7] > 100 µM | [20] > 100 µM | [8] > 26.3 µM | [10] 8.65 µM | [11] > 100 µM | [12] > 100 µM | [13] > 100 µM | [14] > 100 µM | [15] > 26.1 µM | [16] 98.2 µM | [17] > 100 µM | [18] 13.4 µM | [19] > 100 µM
